Measurements published in patent publication US20240108637A1, “EPITE[…] AND/OR A STEROID SULFATASE INHIBITOR FOR USE IN TREATING OR IMPROVING AGE RELATED COGNITIVE IMPAIRMENT” (U[…] DE OLAVIDE, priority 2020, published 2024).
Entries after “also recorded” stand apart in the source; their conditions may differ.

Columns and labels:
[1] = test system: NL5901 strain expressing α-synuclein in muscle cells; experiment: Parkinson's disease model: mobility of NL5901 strain; format: in vivo, C. elegans; settings: 1 μg/ml
Excerpt: We have studied the anatomical location of sul-2 expression from an extrachromosomal array and in single-copy insertion transgenic strains. […] There is no detectable expression in the germline in any transgenic strains (FIG. 2n and FIG. 10, 11a-b). ASE neurons are responsible for the attractive response of Na+ and Cl−, among others. Defects in odour sensing affect longevity. Therefore, we tested the ability of sul-2 mutants to respond to Cl− or Na+ and found no differences compared to wild type animals (FIG. 11c-d). Furthermore, sul-2 mutation increases the longevity of daf-10(m79), a long-lived mutant defective in sensory cilia formation25 (FIG. 11e). […] Reduction of sul-2 improves aging associated diseases in C. elegans Aging is considered the main risk factor for the onset of neurodegenerative disorders like Parkinson, Huntington, or Alzheimer's diseases. These disorders are caused by the progressive decline of proteostasis, which results in protein aggregation that compromises cellular functions and finally causes cell death. Germline-deficient C. elegans delay the symptoms derived from the proteotoxicity of ectopically expressed human β-amyloid (βA). We tested if sul-2 mutations or STX64 treatment improves the symptoms of C. elegans models for neurodegenerative diseases.

[2] = test system: wild type mice injected with β-amyloid oligomers in the hippocampus; experiment: Passive avoidance test after intrahippocampal βA oligomers infusion (acute AD model); format: in vivo
Excerpt: As STX64 ameliorated neurodegeneration in C. elegans models, we tested the effect of this drug on cognitive alterations provoked by intrahippocampal βA oligomers infusion, an acute AD mammalian model (FIG. 3i). […] To evaluate the effect of STX64 oral treatment on amyloid pathology in a chronic AD mice model, we assessed the effect of 3-4 weeks of STX64 oral treatment on amyloid deposition in the neocortex (the cerebral cortex and the hippocampus) of >15-month-old APP-PS1 mice (FIG. 4k). […] We wondered if this histological improvement correlated with amelioration of cognitive behavioural deficit. For that, we compared cognition capacities in APP-PS1 mice older than 15-month-old treated with vehicle or STX64 for 3-4 weeks.
The first, object recognition, after training with identical objects, tests the ability to identify different objects exposed together with a familiar one. When this happens, the object discrimination index is positive and higher than 0.1. […] For this purpose, during training, the entry latency to the preferred site is established and the aversive stimulus is administered.

With `NS(=O)(=O)Oc1ccc2c3c(c(=O)oc2c1)CCCCC3` [STX64] the mobility with age [1] was “reduce mobility with age at a slower rate; also recorded: significantly improved mobility; also recorded: protective effect”, the “cognitive deficiencies, passive avoidance test” value ([2]; local (intrahippocampal) administration) was “reverted the cognitive deficiencies” and the “cognitive deficiencies, passive avoidance test” value ([2]; systemic (oral) administration) was “reverted the cognitive deficiencies”.
